Experimental data published in paper PMC12657321, “Pre-clinical evaluation of a potent and effective Pin1-degrading agent in pancreatic cancer” (Molecular Therapy Oncology, 2025).
Non-standard residues stand in square brackets, D forms with d. Residues, ends and D or L forms follow the SMILES beside them. *: point of attachment. Trp(6-Cl) = N[C@@H](Cc1c[nH]c2cc(Cl)ccc12)C(=O)O; Pip = O=C(O)[C@@H]1CCCCN1; ClAc = O=C(CCl)*

Experiments:
KPC cells = format: cell-based, mouse; details: 72 h
Description: (§1) The effect of Pin1 degradation by 164B8 on cell viability was assessed using live-cell analysis (IncuCyte S3). […] Furthermore, to evaluate the acute single-dose toxicity of 164B8 in vivo, CD-1 immune-competent mice were exposed to increasing doses of 164B8. […] Therefore, a maximum tolerated dose was not reached (Figure S12).
(§2) Figure S11: Mia PaCa-2 and KPC cells were treated with different doses of 164B8, and the
(§3) IncuCyte S3 live-cell analysis system was used to monitor the agent’s activity every 3 hours for
(§4) (1 picture or pasted object on this page, not shown here)

human Pin1 = target: T1, human Pin1 (Homo sapiens, UniProt Q13526); test: DELFIA displacement assay (biotinylated D-peptide / His-tagged Pin1); format: binding; details: DELFIA displacement of biotinylated D-peptide from His-tagged Pin1; compound incubation 6 h; ± standard error of duplicate measurements
T1 construct: Residues 1–163 of human Pin1 were expressed with a thrombin cleavage site and a HisTag at the N-terminus; 6xHis (N); thrombin cleavage site (N); made in house; host or cells: E. coli
T1 sequence (Q13526 whole entry, the tested form may be a part): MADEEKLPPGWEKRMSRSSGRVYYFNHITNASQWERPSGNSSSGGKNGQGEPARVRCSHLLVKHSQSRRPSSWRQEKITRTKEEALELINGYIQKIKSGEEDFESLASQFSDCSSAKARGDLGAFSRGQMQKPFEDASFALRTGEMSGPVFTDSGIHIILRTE
Description: To assess the ability of our agents to bind and inhibit Pin1, we developed a robust biochemical assay based on the dissociation-enhanced lanthanide fluorescent immunoassay (DELFIA) platform. In our implementation, we used a biotinylated form of a known Pin1-binding peptide (D-peptide) to monitor the ability of test agents to inhibit the interaction between Pin1 and the D-peptide at various incubation times, as described previously.[32] […] In addition, as mentioned above and reported recently, we tested the ability of the agents to reduce Pin1 thermal stability in vitro by thermal denaturation measurements.[32] […] Pin1 unfolding causes a nonspecific interaction between the water-quenched fluorescent dye and the protein’s exposed hydrophobic residues, resulting in increased fluorescence. A shift in the thermal denaturation temperature between the free and bound protein is interpreted as a stabilization or destabilization event induced by the test ligand. […] To further assess whether these agents could be suitable for in vivo efficacy studies, we also performed stability assays in aqueous buffer and in plasma from various species (Table S2, Figure S2). We tested the stability of our agents in plasma from multiple mouse strains as well as in human plasma (Figure S2), given the peptide nature of the compounds. […]

MIA PaCa-2 cells = format: cell-based, human; details: 72 h
Description: as §1, §2, §3, §4

With `CNC(=O)[C@H](Cc1c[nH]c2ccccc12)NC(=O)[C@@H]1CCCCN1C(=O)[C@H](Cc1c[nH]c2cc(Cl)ccc12)NC(=O)CCl` [164B8] (ClAc-[Trp(6-Cl)]-[Pip]-Trp-NHMe) as the molecule, how does the EC50 (KPC cells) read?
Its EC50 is 5.3 µM.

And the IC50 (human Pin1)?
Its IC50 is 0.00465 ± 4e-05 µM.

And the EC50 (MIA PaCa-2 cells)?
Its EC50 is 8.4 µM.
